Measurements reported in patent US20070179162A1, “Triazolopyrimdines” (priority 2003, published 2007).

Tests used:
[1] = logP determination through HPLC (gradient method, acetonitrile/0.1% aqueous phosphoric acid); assay type: physicochemical
[2] = test system: Alternaria solani; assay: Alternaria test (tomato)/protective; assay type: in vivo; conditions: tomato plants, protective, applied quantity 750 g/ha, analysis 7 days after inoculation; 100% = no infection
Description: Alternaria Test (Tomato)/Protective Solvent: 49 parts by weight N,N-dimethyl formamide Emulsifier: 1 part by weight alkyl aryl polyglycolether To produce an effective active ingredient preparation, 1 part by weight active ingredient is mixed with the specified quantities of solvent and emulsifier and the concentrate is diluted using water to the desired concentration. To test for protective activity, young tomato plants are sprayed with the active ingredient preparation in the specified applied quantity. 1 day after the treatment, the plants are inoculated with a spore suspension of Alternaria solani and then stand 24 hours at 100% relative humidity and 20° C. The plants are then stand at 96% relative humidity and a temperature of 20° C. The analysis is performed 7 days after the inoculation. In this case, 0% means an activity which corresponds to that of the control, while an activity of 100% means that no infection is observed.

- chromatographic logP [1]: 3.27
Structure (SMILES): CC1CCC(c2c(-c3ncncc3Cl)c(Cl)nc3ncnn23)CC1 (centres unmarked) [Example 1, 5-chloro-6-(5-chloro-4-pyrimidinyl)-7-(4-methylcyclohexyl)[1,2,4]triazolo[1,5-a]pyrimidine]
- activity [2]: 100%
